Consider seven compounds from patent publication US20260109732A1, “LIPID AMINES” (ModernaTX, Inc., priority 2021, published 2026).

The test system of series [1] is HeLa cells. The experiment in a line: CFTR Protein Expression Assay in HeLa Cells. In kind it is cell-based, Human. Conditions: LNPs encapsulating CFTR mRNA, N=4 wells; 5 h serum-free then 24 h; immunofluorescence vs PBS control. Summed up:
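HeLa cells dosed with CFTR mRNA LNPs (70 mM NaCl final buffer matrix) in serum-free MEM for 5 h, then complete MEM for 24 h. Fixed cells immunostained with anti-CFTR monoclonal and Alexa 488 secondary, imaged confocally; CFTR intensity per cell expressed as fold-change versus PBS buffer control, N=4 wells.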

Series [2] in a line: Diameter and PDI from DLS measurements of mRNA nanoparticles with lipid amines. The series is classed as physicochemical. Summed up: (§1)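 Ionizable lipid nanoparticles (IL1:DSPC:cholesterol:PEG-DMG-2K) formed by vortex mixing at pH 4, loaded with luciferase or CFTR mRNA at N:P 4.93, neutralized with TRIS pH 8.12, then modified with lipid amine SA50 at pH 7.5. Particle diameter and PDI read by DLS; mRNA encapsulation by Ribogreen assay.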

Series [3] is described as follows: Encapsulation of mRNA nanoparticles with lipid amines using Ribogreen assay. In kind it is physicochemical. Summed up: as §1
Series [4] has as its system HeLa cells. The series is described as follows: Luciferase Protein Expression Assay in HeLa Cells. In kind it is cell-based, Human. Conditions: LNPs encapsulating Luciferase mRNA, 25 ng per well, N=4 wells; 5 h serum-free then 24 h; ONE-Glo. Summed up:
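HeLa cells received LNPs carrying luciferase mRNA (25 ng per well) or PBS in serum-free MEM for 5 h, then complete MEM for a further 24 h. Luciferase then read by ONE-Glo luminescence after lysis and reported as average RLU of 4 replicate wells.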

Where [5] appears, read: CFTR mRNA nanoparticle with lipid amine.
[6] abbreviates: Luciferase mRNA nanoparticle modified with lipid amine.

Structures can show the parent of a compound that is named as a salt.

As for `CC[C@H](CC[C@@H](C)[C@H]1CC[C@H]2[C@@H]3CC=C4C[C@@H](OC(=O)CN(CCCN)CCCCNCCCN)CC[C@]4(C)[C@H]3CC[C@]12C)C(C)C` [SA119, (3S,8S,9S,10R,13R,14S,17R)-17-((2R,5R)-5-ethyl-6-methylheptan-2-yl)-10,13-dimethyl-2,3,4,7,8,9,10,11,12,13,14,15,16,17-tetradecahydro-1H-cyclopenta[a]phenanthren-3-yl N-(3-aminopropyl)-N-(4-((3-aminopropyl)amino)butyl)glycinate tetrahydrochloride], the “Average fold-change in CFTR signal intensity per cell compared to buffer control ± standard deviation” value with HeLa cells [1] came out at 5.7 ± 1.0 fold-change. Besides, the “Diameter (nm)” value in series [2] (setting [5]) is 88.3 nm; in series [2] (setting [6]), 78 nm. Besides, the PDI in series [2] (setting [5]) was found to be 0.15; in series [2] (setting [6]) it was 0.18. For the same compound, the “% Encapsulation (Ribogreen)” value in series [3] (setting [5]) worked out at 98.9%; in series [3] (setting [6]), 99.4%. For the same compound, the “Average Relative Light Units ± Standard Deviation” value in the series on HeLa cells [4] is 18979.6 ± 7864.8 Relative Light Units.
`CC(C)CCC[C@@H](C)[C@H]1CC[C@H]2[C@@H]3CC=C4C[C@@H](OC(=O)CCC(=O)N(CCCCNCCC(C)N)CCC(C)N)CC[C@]4(C)[C@H]3CC[C@]12C` (stereo partly drawn) [SA160, (3S,8S,9S,10R,13R,14S,17R)-10,13-dimethyl-17-((R)-6-methylheptan-2-yl)-2,3,4,7,8,9,10,11,12,13,14,15,16,17-tetradecahydro-1H-cyclopenta[a]phenanthren-3-yl 4-((3-aminobutyl)(4-((3-aminobutyl)amino)butyl)amino)-4-oxobutanoate trihydrochloride]: the “Average fold-change in CFTR signal intensity per cell compared to buffer control ± standard deviation” value in the series on HeLa cells [1] is on record as 18.2 ± 1.4 fold-change. Moreover, the results for the “Diameter (nm)” value in series [2] (setting [5]) and in series [2] (setting [6]) were 77.4 nm and 75 nm, respectively. In addition, the values for the PDI in series [2] (setting [5]) and in series [2] (setting [6]) were 0.15 and 0.11, respectively. Besides, the “% Encapsulation (Ribogreen)” value was 98.1% in series [3] (setting [5]) and 99.7% in series [3] (setting [6]). Moreover, in the series on HeLa cells [4], the “Average Relative Light Units ± Standard Deviation” value was 19694.4 ± 6954.5 Relative Light Units.
With `CC(C)CCC[C@@H](C)[C@H]1CC[C@H]2[C@@H]3CC=C4C[C@@H](OC(=O)CCCCC(=O)N(CCCN)CCCCNCCCN)CC[C@]4(C)[C@H]3CC[C@]12C` [SA89, (3S,8S,9S,10R,13R,14S,17R)-10,13-dimethyl-17-((R)-6-methylheptan-2-yl)-2,3,4,7,8,9,10,11,12,13,14,15,16,17-tetradecahydro-1H-cyclopenta[a]phenanthren-3-yl 6-((3-aminopropyl)(4-((3-aminopropyl)amino)butyl)amino)-6-oxohexanoate trihydrochloride], the “Average fold-change in CFTR signal intensity per cell compared to buffer control ± standard deviation” value with HeLa cells [1] is listed as 3.7 ± 0.4 fold-change. Also, the “Diameter (nm)” value came out at 86.5 nm in series [2] (setting [5]) and 77 nm in series [2] (setting [6]). The results for the PDI in series [2] (setting [5]) and in series [2] (setting [6]) were 0.15 and 0.16, respectively. Further, the “% Encapsulation (Ribogreen)” value in series [3] (setting [5]) stood at 98.6%; in series [3] (setting [6]), 99.7%. The “Average Relative Light Units ± Standard Deviation” value in the series on HeLa cells [4] came out at 8209.2 ± 4138.5 Relative Light Units.
For `CC(C)CCC[C@@H](C)[C@H]1CC[C@H]2[C@@H]3CC=C4C[C@@H](SSCCC(=O)N(CCCN)CCCCCCCCN)CC[C@]4(C)[C@H]3CC[C@]12C` [SA97, N-(8-Aminooctyl)-N-(3-aminopropyl)-3-(((3S,8S,9S,10R,13R,14S,17R)-10,13-dimethyl-17-((R)-6-methylheptan-2-yl)-2,3,4,7,8,9,10,11,12,13,14,15,16,17-tetradecahydro-1H-cyclopenta[a]phenanthren-3-yl)disulfaneyl)propanamide dihydrochloride], the “Average fold-change in CFTR signal intensity per cell compared to buffer control ± standard deviation” value with HeLa cells [1] is listed as 5.3 ± 1.0 fold-change. Besides, the “Diameter (nm)” value amounted to 83.2 nm in series [2] (setting [5]) and 72 nm in series [2] (setting [6]). Moreover, the PDI in series [2] (setting [5]) is on record as 0.12; in series [2] (setting [6]), 0.16. For the same compound, the “% Encapsulation (Ribogreen)” value was 98.4% in series [3] (setting [5]) and 98.8% in series [3] (setting [6]). Besides, the “Average Relative Light Units ± Standard Deviation” value in the series on HeLa cells [4] is 13144.4 ± 4350.5 Relative Light Units.
On to `CC[C@H](CC[C@@H](C)[C@H]1CC[C@H]2[C@@H]3CC=C4C[C@@H](OC(=O)N(CCCN)CCCCN)CC[C@]4(C)[C@H]3CC[C@]12C)C(C)C` [SA120, (3S,8S,9S,10R,13R,14S,17R)-17-((2R,5R)-5-Ethyl-6-methylheptan-2-yl)-10,13-dimethyl-2,3,4,7,8,9,10,11,12,13,14,15,16,17-tetradecahydro-1H-cyclopenta[a]phenanthren-3-yl (4-aminobutyl)(3-aminopropyl)carbamate dihydrochloride], for which the “Average fold-change in CFTR signal intensity per cell compared to buffer control ± standard deviation” value in the series with HeLa cells [1] was found to be 16.8 ± 1.1 fold-change. The entries for the “Diameter (nm)” value in series [2] (setting [5]) and in series [2] (setting [6]) were 83.6 nm and 76 nm, respectively. Besides, the values for the PDI in series [2] (setting [5]) and in series [2] (setting [6]) were 0.14 and 0.28, respectively. The “% Encapsulation (Ribogreen)” value came out at 97.5% in series [3] (setting [5]) and 99.1% in series [3] (setting [6]). In addition, the “Average Relative Light Units ± Standard Deviation” value in the series with HeLa cells [4] is reported as 34695.5 ± 9492.2 Relative Light Units.
For `CC(C)CCC[C@@H](C)[C@H]1CC[C@H]2[C@@H]3CC=C4C[C@@H](OC(=O)CN(CCCN)CCCCCCCCN)CC[C@]4(C)[C@H]3CC[C@]12C` [SA71, (3S,8S,9S,10R,13R,14S,17R)-10,13-Dimethyl-17-((R)-6-methylheptan-2-yl)-2,3,4,7,8,9,10,11,12,13,14,15,16,17-tetradecahydro-1H-cyclopenta[a]phenanthren-3-yl N-(8-aminooctyl)-N-(3-aminopropyl)glycinate trihydrochloride], in the series with HeLa cells [1], the “Average fold-change in CFTR signal intensity per cell compared to buffer control ± standard deviation” value came to 6.0 ± 0.4 fold-change. For the same compound, the results for the “Diameter (nm)” value in series [2] (setting [5]) and in series [2] (setting [6]) were 74.3 nm and 73 nm, respectively. Moreover, the PDI in series [2] (setting [5]) was 0.12; in series [2] (setting [6]), 0.15. In addition, the “% Encapsulation (Ribogreen)” value in series [3] (setting [5]) turned out to be 99.8%; in series [3] (setting [6]), 99.1%. The “Average Relative Light Units ± Standard Deviation” value in the series with HeLa cells [4] worked out at 32758.9 ± 5897.1 Relative Light Units.
Regarding `CC(C)CCC[C@@H](C)[C@H]1CC[C@H]2[C@@H]3CC=C4C[C@@H](OC(=O)N(CCCCNCC5(CN)CC5)CC5(CN)CC5)CC[C@]4(C)[C@H]3CC[C@]12C.Cl.Cl.Cl` [SA128, (3S,8S,9S,10R,13R,14S,17R)-10,13-dimethyl-17-((R)-6-methylheptan-2-yl)-2,3,4,7,8,9,10,11,12,13,14,15,16,17-tetradecahydro-1H-cyclopenta[a]phenanthren-3-yl ((1-(aminomethyl)cyclopropyl)methyl)(4-(((1-(aminomethyl)cyclopropyl)methyl)amino)butyl)carbamate trihydrochloride], in the series with HeLa cells [1], the “Average fold-change in CFTR signal intensity per cell compared to buffer control ± standard deviation” value was found to be 19.9 ± 0.4 fold-change. The “Diameter (nm)” value in series [2] (setting [5]) was 74.5 nm; in series [2] (setting [6]), 75 nm. Moreover, the PDI is listed as 0.13 in series [2] (setting [5]) and 0.16 in series [2] (setting [6]). The “% Encapsulation (Ribogreen)” value in series [3] (setting [5]) and in series [3] (setting [6]) was 99.4% each time. Besides, the “Average Relative Light Units ± Standard Deviation” value with HeLa cells [4] is recorded as 39386.4 ± 5261.4 Relative Light Units.
